According to US7815900B1, “Use of C3-C5 monosaccharides to protect keratinous fibers” (L'Oréal S.A., priority 2000, dated 2010):

Tests used:
[1] = DSC doublet peak area (α-structure) of hair after heat cycles; details: normal blonde hair
Procedure: (§1) Normal blonde hair was bleached with Clairol Basic White Bleach (40 volume H2O2) for 20 min at standard room temperature and humidity. The bleached swatches were rinsed with tap water, and soaked in an excess of deionized water for 2 hours. The swatches were air-dried and equilibrated for 48 hours prior to further treatment. Some of the bleached swatches were subsequently “permed” using a Reforming Lotion (10% TGA, pH 8.8, 20 minutes) and then neutralized with 2% H2O2, pH 3 (5 minutes). The bleached/permed swatches were rinsed with tap water, and soaked in an excess of deionized water for 2 hours. The swatches were air-dried and equilibrated for 48 hours prior to further treatment. The swatches that were heat treated were treated with 0.06M solutions of hexoses and pentoses for 10 min at 45° C. and then were heated for 12 cycles. The swatches were rinsed after the heat application.
(§2) In the DSC tests, finely cut hair (4-5 mg) was crimped in an aluminum pan that was punctured prior to each run. The samples were heated from 25° C. to 300° C., at a scanning rate of 20° C./min, with 5 runs per treatment. The results were averaged.
(§3) Normal blonde hair was bleached with Clairol Basic White Bleach, 40 volume H2O2, for 20 min at room temperature. One batch of normal and bleached hair swatches underwent five heat cycles at 130° C., where one treatment cycle involved the following steps (1-4):
(§4) 1. The swatches were treated with 0.06 M solutions of monosaccharides in deionized water (about 1 wt %) for 10 min at 45° C.
(§5) 2. The treated swatches were blow-dried for 1 min.
(§6) 3. The heat was applied for 1 min in the form of a flat hair iron Windmere “Solid Gold” (130° C.).
(§7) 4. The swatches were rinsed and blot-dried with a paper-towel.
(§8) The treatment solutions included four pentoses (D-xylose, D-arabinose, D-lyxose, and D-ribose, 1% each) and one hexose (1.2% D-glucose). Deionized water was used as a control treatment. After the heat experiment, the hair was rinsed in water, air-dried, and equilibrated for 24 hours in the humidity chamber at 25° C. and 50% RH prior to further testing. These swatches are referred to as treated at 130° C.
(§9) A second batch of normal and bleached hair swatches were treated in a similar way and blow-dried, without application of the hot iron. The treatment was also repeated 5 times, the swatches from the second batch are referred to as treated at 45° C.
Normal blonde hair was subjected to 12 heat cycles, as described in Example 2, using the following treatment solutions: 0.1% D-Xylose (pentose), 0.1% D-Erythrose (tetrose), and 0.1% D-Glyceraldehyde (triose). Each of the C3 to C5 monosaccharides was effective in protecting or reducing the damage to the α-structure of the hair, as compared to water treatment (Table 15).
Normal blonde hair was subjected to 12 heat cycles, as described in Example 2, using 0.1 wt % of the pentose amine derivative, D-Lyxosylimine in deionized water.

[2] = as above; details: for Doublet Peak Area: 0.06 M solutions
Procedure: as §1, §2, §3, §4, §5, §6, §7, §8, §9
Normal blonde hair was divided in two batches. The hair from the first batch was bleached with Clairol Basic White Bleach, 40 volume H2O2, for 20 min at room temperature and humidity. The hair from the second batch was first bleached as above, and then permed: Reforming lotion-10% Thioglycolic acid, pH 8.8, 20 min; neutralizer-2% hydrogen peroxide, 5 min. The oxidatively damaged hair was equilibrated for 24 hours prior to further testing.
(§10) Both the bleached and the bleached/permed hair were subjected to heat treatment, as in Example 2. The heat treatment experiment involved 12 heat cycles including application of sugar or control solution before each heat application, and rinsing after the heat application. Deionized water was used as a control treatment.
(§11) After the heat experiment, the hair was rinsed in water, air-dried, and equilibrated for 24 h in the humidity chamber at 25° C. and 50% RH prior to further testing. The effect of the hexoses vs. pentoses on the dry tensile strength (INSTRON) and the alpha-structure (doublet peak area, DSC) was tested on the bleached hair (Table 13). The effect of a hexose (D-glucose) vs. a pentose (D-Xylose) on wet tensile strength (DIA-STRON) was tested both on the bleached and the bleached/permed hair (Table 14). Application of 0.06M solutions of pentoses protected the bleached and the bleached/permed hair against thermal damage (α-structure; wet and dry tensile strength).

[3] = Dry tensile strength (Instron) after heat cycles; details: for protection of dry tensile strength, in words: hair treated 5 cycles at 45° C. and at 130° C.
Procedure: as §1
(§12) Tensile strength was determined using both the Instron (50 dry fibers per tests) and the Dia-Stron (100 wet fibers per test), with the stretching rate of 100 mm/min. The following parameters were determined: Young's Modulus (N/m^2), Work to stretch 25% (J/m^2); Extension to Break (degree of elongation) (%); Work to Break (J/m^2).
as §3, §4, §5, §6, §7, §8, §9, §10, §11

[4] = Dry tensile strength (Instron) after heat cycles; details: normal blonde hair, 5 heat cycles at 130° C., 0.06 M solutions, n = 50 fibers
Procedure: as §12, §3, §4, §5, §6, §7, §8, §9

[5] = DSC doublet peak area (α-structure) of hair after heat cycles; details: bleached/permed hair, 12 heat cycles, 0.06 M
Procedure: Normal blonde hair was bleached with Clairol Basic White Bleach (40 volume H2O2) for 20 min at standard room temperature and humidity. The bleached swatches were rinsed with tap water, and soaked in an excess of deionized water for 2 hours. The swatches were air-dried and equilibrated for 48 hours prior to further treatment. Some of the bleached swatches were subsequently “permed” using a Reforming Lotion (10% TGA, pH 8.8, 20 minutes) and then neutralized with 2% H2O2, pH 3 (5 minutes). The bleached/permed swatches were rinsed with tap water, and soaked in an excess of deionized water for 2 hours. The swatches were air-dried and equilibrated for 48 hours prior to further treatment. The swatches that were heat treated were treated with 0.06M solutions of hexoses and pentoses for 10 min at 45° C. and then were heated for 12 cycles. The swatches were rinsed after the heat application. In the DSC tests, finely cut hair (4-5 mg) was crimped in an aluminum pan that was punctured prior to each run. The samples were heated from 25° C. to 300° C., at a scanning rate of 20° C./min, with 5 runs per treatment. The results were averaged. Normal blonde hair was divided in two batches. The hair from the first batch was bleached with Clairol Basic White Bleach, 40 volume H2O2, for 20 min at room temperature and humidity. The hair from the second batch was first bleached as above, and then permed: Reforming lotion-10% Thioglycolic acid, pH 8.8, 20 min; neutralizer-2% hydrogen peroxide, 5 min. The oxidatively damaged hair was equilibrated for 24 hours prior to further testing. Both the bleached and the bleached/permed hair were subjected to heat treatment, as in Example 2. The heat treatment experiment involved 12 heat cycles including application of sugar or control solution before each heat application, and rinsing after the heat application. Deionized water was used as a control treatment. After the heat experiment, the hair was rinsed in water, air-dried, and equilibrated for 24 h in the humidity chamber at 25° C. and 50% RH prior to further testing. The effect of the hexoses vs. pentoses on the dry tensile strength (INSTRON) and the alpha-structure (doublet peak area, DSC) was tested on the bleached hair (Table 13). The effect of a hexose (D-glucose) vs. a pentose (D-Xylose) on wet tensile strength (DIA-STRON) was tested both on the bleached and the bleached/permed hair (Table 14). Application of 0.06M solutions of pentoses protected the bleached and the bleached/permed hair against thermal damage (α-structure; wet and dry tensile strength).

[6] = bleached hair after 12 heat cycles
[7] = bleached hair after 12 heat cycles, 0.06 M solutions, n = 100 fibers
[8] = dry bleached hair, 12 heat cycles, 0.06 M, INSTRON, n = 50 fibers
[9] = bleached hair, 5 cycles at 45° C.
[10] = bleached hair, 5 heat cycles at 130° C.
[11] = bleached hair, 5 heat cycles at 130° C., 0.06 M solutions, n = 50 fibers
[12] = dry, bleached hair, 5 cycles at 45° C., 0.06 M solutions, n = 50 fibers
[13] = 5 heat cycles at 130° C., 0.06 M solutions
[14] = 0.1 wt % solutions, 12 heat cycles at 130° C.

Compound | Doublet Peak Area [2, 6] | Work 25% (Dry) [3, 7] | Extension-Break [3, 8] | Work 25% [3, 8] | Work-Break [3, 8] | Young's Modulus [3, 8] | further results
D-Lyxosylimine | – | – | – | – | – | – | Doublet Peak Area ([1]; 0.1 wt % Lyxosylimine, 12 heat cycles at 130° C.): 11.49 +/− 3.56 J/g hair; protection of the α-structure as compared to water treatment, in words ([1]; 0.1 wt % solutions, 12 heat cycles): protected the α-structure hair
O=C[C@@H](O)[C@@H](O)[C@H](O)[C@H](O)CO [D-Mannose] | 5.47 +/− 1.27 J/g hair | 914.9 +/− 122.0 J/m^2 | 57.33 +/− 5.98% | 914.9 +/− 122 J/m^2 | 2,595 +/− 433 J/m^2 | 4,746 +/− 688 MN/m^2 | –
O=C(CO)[C@@H](O)[C@H](O)[C@H](O)CO [D-Fructose] | 6.51 +/− 1.71 J/g hair | 885.0 +/− 161.0 J/m^2 | 59.89 +/− 8.11% | 885 +/− 161 J/m^2 | 2,644 +/− 644 J/m^2 | 4,492 +/− 852 MN/m^2 | –
O=C[C@H](O)[C@H](O)[C@H](O)CO [D-Ribose] | – | – | – | – | – | – | Doublet Peak Area [2, 9]: 7.80 +/− 1.87 J/g hair; Doublet Peak Area [2, 10]: 9.27 +/− 2.81 J/g hair; Work 25% (Dry) [3, 11]: 1,064 +/− 171.1 J/m^2; Work 25% [3, 12]: 1,237 +/− 204 J/m^2; protection of dry tensile strength, in words [3]: improved protection both at 45 °C and at 130 °C
O=C[C@@H](O)[C@@H](O)[C@H](O)CO [D-Lyxose] | – | – | – | – | – | – | Doublet Peak Area [1, 13]: 8.35 +/− 0.81 J/g hair; Doublet Peak Area [2, 9]: 8.26 +/− 3.02 J/g hair; Doublet Peak Area [2, 10]: 6.23 +/− 0.59 J/g hair; Work 25% (Dry) [4]: 883.4 +/− 174.2 J/m^2; Work 25% (Dry) [3, 11]: 819.9 +/− 162.7 J/m^2; Work 25% [3, 12]: 1,157 +/− 228 J/m^2; protection of dry tensile strength, in words [3]: better improved protection at 45 °C
C[C@H](O)[C@@H](O)[C@@H](O)[C@H](O)C=O [L-Fucose] | 5.26 +/− 1.59 J/g hair | 838.2 +/− 134.5 J/m^2 | 57.01 +/− 6.18% | 838.2 +/− 134.5 J/m^2 | 2,346 +/− 543 J/m^2 | 4,331 +/− 860 MN/m^2 | –
O=C[C@H](O)[C@H](O)CO [D-Erythrose] | – | – | – | – | – | – | Doublet Peak Area [1, 14]: 13.20 +/− 7.15 J/g hair
O=C[C@H](O)[C@@H](O)[C@@H](O)[C@H](O)CO [D-Galactose] | 5.39 +/− 2.29 J/g hair | 945.8 +/− 168.9 J/m^2 | 58.82 +/− 6.21% | 945.8 +/− 168.9 J/m^2 | 2,696 +/− 533 J/m^2 | 4,724 +/− 913 MN/m^2 | –
O=CC[C@H](O)[C@H](O)CO [2-Deoxy-D-ribose] | 9.63 +/− 2.87 J/g hair | 1,032 +/− 163 J/m^2 | 55.35 +/− 7.52% | 1,032 +/− 163 J/m^2 | 2,872 +/− 709 J/m^2 | 5,111 +/− 871 MN/m^2 | protection effect (normalized α-structure peak area), in words ([2]; bleached and bleached/permed hair, 12 heat cycles): protection effect was found; Normalized area ([2]; bleached hair, 12 heat cycles, 0.06 M): 9.63 +/− 2.87 J/g hair; Normalized area [5]: 6.43 +/− 1.87 J/g hair
O=C[C@H](O)CO [D-Glyceraldehyde] | – | – | – | – | – | – | Doublet Peak Area [1, 14]: 13.47 +/− 3.03 J/g hair
O=C[C@@H](O)[C@H](O)[C@H](O)CO [D-Arabinose] | – | – | – | – | – | – | Doublet Peak Area [1, 13]: 11.33 +/− 2.30 J/g hair; Doublet Peak Area [2, 9]: 7.78 +/− 1.07 J/g hair; Doublet Peak Area [2, 10]: 8.22 +/− 0.90 J/g hair; Work 25% (Dry) [4]: 1,060 +/− 180 J/m^2; Work 25% [3, 12]: 1,147 +/− 191 J/m^2; protection of dry tensile strength, in words [3]: improved protection both at 45 °C and at 130 °C
